Results reported in patent publication US7005139B2, “Compositions and methods for the targeted delivery of agents to treat liver cancer” (Hong Kong University of Science and Technology, priority 2001, dated 2006).

System: HepG2 tumors
Assay: Anti-tumor efficacy in HepG2-tumor bearing nude mice
Type: in vivo, nu/nu BALB/c nude mice
Conditions: s.c. HepG2 tumors, i.v. 1 mg/kg dox equivalents every other day from day 2, tumor volume, FIG. 4
Procedure: Nude mice were inoculated s.c. with 4×10^6 HepG2 cells on day 0. On day 2, groups of five mice were injected intravenously with 1 mg/kg dox equivalents of D, DL or DLG. The control group received injections of saline (S). Injections were carried out every other day. The tumor size was measured weekly and the volume calculated using the formula 0.52×L×W×H. Each point represents the mean volume from each group of 5 mice.
Nude mice were inoculated s.c. with 4×10^6 HepG2 cells on day 0. On day 2, groups of five mice were injected intravenously with 1 mg/kg dox equivalents of D, DL or DLG. The control group received injections of saline. Injections were carried out every other day. All mice were sacrificed on day 35. The tumors were removed and weighted. Each column represents the mean ±s.d. (n=5). *p<0.05 statistically significant difference as compared to control (student's t-test).
Nude mice (body weight 20–25 g; 6–8 weeks) were inoculated subcutaneously (s.c.) with a suspension of HepG2 cells (4×10^6/mouse) on Day 0. On Day 2, groups of five mice were injected intravenously with 1 mg/kg equivalents of D, DL or DLG. The Control group received injections of saline. Injections were carried out every other day. Tumor volume was continuously monitored using a Vernier caliper. Measurements were taken weekly and volumes were calculated according to the formula (L×W×H×0.52). […]

## COc1cccc2c1C(=O)c1c(O)c3c(c(O)c1C2=O)C[C@@](O)(C(=O)CO)C[C@@H]3O[C@H]1C[C@H](N)[C@H](O)[C@H](C)O1.Cl [D, doxorubicin hydrochloride]
  tumor growth inhibition: about 40%
